According to patent US11225505B2, “Antimicrobial polymyxin derivative compounds” (MONASH UNIVERSITY, priority 2015, dated 2022):
≈ marks a conversion by molar mass, not a printed value. Where a SMILES comes first, the peptide text is derived from it. Bridges are numbered along the chain shown (N, C = ends). [ ]: non-standard residue; d: D form. The star is where a group is joined. X18 = O=C(c1cc(-c2ccccc2)[nH]n1)*; X64 = O=C(c1noc(-c2ccccc2)n1)*; X23 = O=C(c1cc2ccccc2[nH]1)*; X28 = Cc1cc(C(=O)*)cc(Cl)n1; X1 = O=C(c1ncc(Cl)cc1Cl)*; X67 = O=C(c1cc(Br)sc1Br)*; Dab = NCC[C@H](N)C(=O)O; X60 = O=C(c1cnc(Br)s1)*; Abu = CC[C@H](N)C(=O)O; Dap = NC[C@H](N)C(=O)O

Key:
Type in all cases: cell-based
[1] = tested on: Acinetobacter baumannii FADDI-AB030; experiment: microbe, parasite or virus in culture; conditions: FADDI-AB030
How it was run: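 Lipopeptide TFA salts tested against the multidrug-resistant clinical isolate by CLSI (M100-S24) broth microdilution in cation-adjusted Mueller-Hinton broth, with polymyxin B sulphate as control; MIC read.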

[2] = tested on: Pseudomonas aeruginosa ATCC 27853; conditions: ATCC 27853
How it was run: (§1)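 Lipopeptide TFA salts were serially diluted in cation-adjusted Mueller-Hinton broth, inoculated with polymyxin-susceptible Gram-negative bacteria and scored for MIC according to CLSI guidance (M100-S24). Polymyxin B sulphate was included as comparator.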

[3] = tested on: Klebsiella pneumoniae Kp BM1; conditions: Kp BM1
How it was run: (§2)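 Broth microdilution, CAMHB, per CLSI M100-S24; lipopeptides as TFA salts; polymyxin B sulphate control. Read-out: MIC. Strains are polymyxin-susceptible; PA022 and AB034 are MDR clinical isolates.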

[4] = tested on: Klebsiella pneumoniae FADDI-KP032; conditions: FADDI-KP032
How it was run: as §1

[5] = tested on: Enterobacter cloacae FADDI-EC006; conditions: FADDI-EC006
How it was run: as §1

[6] = tested on: Pseudomonas aeruginosa FADDI-PA01; conditions: FADDI-
How it was run: as §1

[7] = tested on: Enterobacter cloacae FADDI-EC003; conditions: FADDI-EC003
How it was run: as §1

[8] = tested on: Pseudomonas aeruginosa FADDI-PA038; conditions: FADDI-PA038
How it was run: as §1

[9] = tested on: Klebsiella pneumoniae FADDI-KP022; conditions: FADDI-KP022
How it was run: as §1

[10] = tested on: Pseudomonas aeruginosa FADDI-PA022; conditions: FADDI-PA022
How it was run: as §1

[11] = tested on: Enterobacter cloacae FADDI-EC001; conditions: FADDI-EC001
How it was run: as §2

[12] = tested on: Acinetobacter baumannii FADDI-AB034; conditions: FADDI-AB034
How it was run: as §1

[13] = tested on: Acinetobacter baumannii ATCC 17978; conditions: ATCC 17978
How it was run: as §1

CC[C@@H]1NC(=O)[C@@H](CC(C)C)NC(=O)[C@H](CCN)NC(=O)[C@@H](NC(=O)[C@H](CN)NC(=O)[C@@H](NC(=O)[C@H](CCN)NC(=O)c2cc3ccccc3[nH]2)[C@@H](C)O)CCNC(=O)[C@H]([C@@H](C)O)NC(=O)[C@H](CCN)NC(=O)[C@H](CCN)NC1=O [Compound 56] (X23-[Dab]T[Dap][Dab][Dab][dL][Abu][Dab][Dab]T; lactam 4-C)
Minimum inhibitory concentration [1]: 0.25 µg/mL (≈ 0.221 µM)
Minimum inhibitory concentration [2]: 0.25 µg/mL (≈ 0.221 µM)
Minimum inhibitory concentration [3]: 0.25 µg/mL (≈ 0.221 µM)
Minimum inhibitory concentration [4]: <0.125 µg/mL
Minimum inhibitory concentration [5]: 0.5 µg/mL (≈ 0.442 µM)
Minimum inhibitory concentration [6]: <0.125 µg/mL
Minimum inhibitory concentration [7]: 0.5 µg/mL (≈ 0.442 µM)
Minimum inhibitory concentration [8]: 0.5 µg/mL (≈ 0.442 µM)
Minimum inhibitory concentration [9]: <0.125 µg/mL
Minimum inhibitory concentration [10]: 0.25 µg/mL (≈ 0.221 µM)
Minimum inhibitory concentration [11]: <0.125 µg/mL
Minimum inhibitory concentration [12]: <0.125 µg/mL
Minimum inhibitory concentration [13]: 0.25 µg/mL (≈ 0.221 µM)

C[C@@H]1NC(=O)[C@@H](Cc2ccccc2)NC(=O)[C@H](CCN)NC(=O)[C@@H](NC(=O)[C@H](CN)NC(=O)[C@@H](NC(=O)[C@H](CCN)NC(=O)c2ncc(Cl)cc2Cl)[C@@H](C)O)CCNC(=O)[C@H]([C@@H](C)O)NC(=O)[C@H](CCN)NC(=O)[C@H](CCN)NC1=O [Compound 9] (X1-[Dab]T[Dap][Dab][Dab][dF]A[Dab][Dab]T; lactam 4-C)
Minimum inhibitory concentration [1]: 2 µg/mL (≈ 1.69 µM)
Minimum inhibitory concentration [2]: 0.25 µg/mL (≈ 0.212 µM)
Minimum inhibitory concentration [3]: 0.25 µg/mL (≈ 0.212 µM)
Minimum inhibitory concentration [4]: 0.25 µg/mL (≈ 0.212 µM)
Minimum inhibitory concentration [5]: 1 µg/mL (≈ 0.847 µM)
Minimum inhibitory concentration [6]: 0.25 µg/mL (≈ 0.212 µM)
Minimum inhibitory concentration [7]: <0.125 µg/mL
Minimum inhibitory concentration [8]: 0.5 µg/mL (≈ 0.423 µM)
Minimum inhibitory concentration [9]: <0.125 µg/mL
Minimum inhibitory concentration [10]: 0.25 µg/mL (≈ 0.212 µM)
Minimum inhibitory concentration [11]: <0.125 µg/mL
Minimum inhibitory concentration [12]: 2 µg/mL (≈ 1.69 µM)
Minimum inhibitory concentration [13]: 2 µg/mL (≈ 1.69 µM)

CC[C@@H]1NC(=O)[C@@H](CC(C)C)NC(=O)[C@H](CCN)NC(=O)[C@@H](NC(=O)[C@H](CN)NC(=O)[C@@H](NC(=O)[C@H](CCN)NC(=O)c2cc(-c3ccccc3)[nH]n2)[C@@H](C)O)CCNC(=O)[C@H]([C@@H](C)O)NC(=O)[C@H](CCN)NC(=O)[C@H](CCN)NC1=O [Compound 84] (X18-[Dab]T[Dap][Dab][Dab][dL][Abu][Dab][Dab]T; lactam 4-C)
Minimum inhibitory concentration [1]: 0.5 µg/mL (≈ 0.432 µM)
Minimum inhibitory concentration [2]: 0.25 µg/mL (≈ 0.216 µM)
Minimum inhibitory concentration [3]: <0.125 µg/mL
Minimum inhibitory concentration [4]: 0.25 µg/mL (≈ 0.216 µM)
Minimum inhibitory concentration [5]: <0.125 µg/mL
Minimum inhibitory concentration [6]: 0.25 µg/mL (≈ 0.216 µM)
Minimum inhibitory concentration [7]: <0.125 µg/mL
Minimum inhibitory concentration [8]: 0.5 µg/mL (≈ 0.432 µM)
Minimum inhibitory concentration [9]: <0.125 µg/mL
Minimum inhibitory concentration [10]: 0.25 µg/mL (≈ 0.216 µM)
Minimum inhibitory concentration [11]: 0.25 µg/mL (≈ 0.216 µM)
Minimum inhibitory concentration [12]: 0.5 µg/mL (≈ 0.432 µM)
Minimum inhibitory concentration [13]: 0.5 µg/mL (≈ 0.432 µM)

CC[C@@H]1NC(=O)[C@@H](CC(C)C)NC(=O)[C@H](CCN)NC(=O)[C@@H](NC(=O)[C@H](CN)NC(=O)[C@@H](NC(=O)[C@H](CCN)NC(=O)c2cc(C)nc(Cl)c2)[C@@H](C)O)CCNC(=O)[C@H]([C@@H](C)O)NC(=O)[C@H](CCN)NC(=O)[C@H](CCN)NC1=O [Compound 39] (X28-[Dab]T[Dap][Dab][Dab][dL][Abu][Dab][Dab]T; lactam 4-C)
Minimum inhibitory concentration [1]: 0.5 µg/mL (≈ 0.438 µM)
Minimum inhibitory concentration [2]: 0.5 µg/mL (≈ 0.438 µM)
Minimum inhibitory concentration [3]: 1 µg/mL (≈ 0.877 µM)
Minimum inhibitory concentration [4]: 0.5 µg/mL (≈ 0.438 µM)
Minimum inhibitory concentration [5]: 1 µg/mL (≈ 0.877 µM)
Minimum inhibitory concentration [6]: 0.5 µg/mL (≈ 0.438 µM)
Minimum inhibitory concentration [7]: 0.5 µg/mL (≈ 0.438 µM)
Minimum inhibitory concentration [8]: 1 µg/mL (≈ 0.877 µM)
Minimum inhibitory concentration [9]: <0.125 µg/mL
Minimum inhibitory concentration [10]: 0.5 µg/mL (≈ 0.438 µM)
Minimum inhibitory concentration [11]: 0.5 µg/mL (≈ 0.438 µM)
Minimum inhibitory concentration [12]: 1 µg/mL (≈ 0.877 µM)
Minimum inhibitory concentration [13]: 1 µg/mL (≈ 0.877 µM)

CC[C@@H]1NC(=O)[C@@H](CC(C)C)NC(=O)[C@H](CCN)NC(=O)[C@@H](NC(=O)[C@H](CN)NC(=O)[C@@H](NC(=O)[C@H](CCN)NC(=O)c2noc(-c3ccccc3)n2)[C@@H](C)O)CCNC(=O)[C@H]([C@@H](C)O)NC(=O)[C@H](CCN)NC(=O)[C@H](CCN)NC1=O [Compound 81] (X64-[Dab]T[Dap][Dab][Dab][dL][Abu][Dab][Dab]T; lactam 4-C)
Minimum inhibitory concentration [1]: 2 µg/mL (≈ 1.73 µM)
Minimum inhibitory concentration [2]: 1 µg/mL (≈ 0.863 µM)
Minimum inhibitory concentration [3]: 0.5 µg/mL (≈ 0.431 µM)
Minimum inhibitory concentration [4]: 0.5 µg/mL (≈ 0.431 µM)
Minimum inhibitory concentration [5]: 0.25 µg/mL (≈ 0.216 µM)
Minimum inhibitory concentration [6]: 0.5 µg/mL (≈ 0.431 µM)
Minimum inhibitory concentration [7]: <0.125 µg/mL
Minimum inhibitory concentration [8]: 1 µg/mL (≈ 0.863 µM)
Minimum inhibitory concentration [9]: <0.125 µg/mL
Minimum inhibitory concentration [10]: 0.5 µg/mL (≈ 0.431 µM)
Minimum inhibitory concentration [11]: <0.125 µg/mL
Minimum inhibitory concentration [12]: 4 µg/mL (≈ 3.45 µM)
Minimum inhibitory concentration [13]: 2 µg/mL (≈ 1.73 µM)

CC[C@@H]1NC(=O)[C@@H](CC(C)C)NC(=O)[C@H](CCN)NC(=O)[C@@H](NC(=O)[C@H](CN)NC(=O)[C@@H](NC(=O)[C@H](CCN)NC(=O)c2cnc(Br)s2)[C@@H](C)O)CCNC(=O)[C@H]([C@@H](C)O)NC(=O)[C@H](CCN)NC(=O)[C@H](CCN)NC1=O [Compound 91] (X60-[Dab]T[Dap][Dab][Dab][dL][Abu][Dab][Dab]T; lactam 4-C)
Minimum inhibitory concentration [1]: 1 µg/mL (≈ 0.849 µM)
Minimum inhibitory concentration [2]: 0.5 µg/mL (≈ 0.425 µM)
Minimum inhibitory concentration [3]: 0.5 µg/mL (≈ 0.425 µM)
Minimum inhibitory concentration [4]: 0.5 µg/mL (≈ 0.425 µM)
Minimum inhibitory concentration [5]: 0.5 µg/mL (≈ 0.425 µM)
Minimum inhibitory concentration [6]: 0.5 µg/mL (≈ 0.425 µM)
Minimum inhibitory concentration [7]: 1 µg/mL (≈ 0.849 µM)
Minimum inhibitory concentration [8]: 1 µg/mL (≈ 0.849 µM)
Minimum inhibitory concentration [9]: <0.125 µg/mL
Minimum inhibitory concentration [10]: 0.5 µg/mL (≈ 0.425 µM)
Minimum inhibitory concentration [11]: 0.5 µg/mL (≈ 0.425 µM)
Minimum inhibitory concentration [12]: 2 µg/mL (≈ 1.7 µM)
Minimum inhibitory concentration [13]: 2 µg/mL (≈ 1.7 µM)

CC[C@@H]1NC(=O)[C@@H](CC(C)C)NC(=O)[C@H](CCN)NC(=O)[C@@H](NC(=O)[C@H](CN)NC(=O)[C@@H](NC(=O)[C@H](CCN)NC(=O)c2cc(Br)sc2Br)[C@@H](C)O)CCNC(=O)[C@H]([C@@H](C)O)NC(=O)[C@H](CCN)NC(=O)[C@H](CCN)NC1=O [Compound 76] (X67-[Dab]T[Dap][Dab][Dab][dL][Abu][Dab][Dab]T; lactam 4-C)
Minimum inhibitory concentration [1]: 0.25 µg/mL (≈ 0.199 µM)
Minimum inhibitory concentration [2]: 0.25 µg/mL (≈ 0.199 µM)
Minimum inhibitory concentration [3]: <0.125 µg/mL
Minimum inhibitory concentration [4]: <0.125 µg/mL
Minimum inhibitory concentration [5]: <0.125 µg/mL
Minimum inhibitory concentration [6]: 0.25 µg/mL (≈ 0.199 µM)
Minimum inhibitory concentration [7]: <0.125 µg/mL
Minimum inhibitory concentration [8]: 0.5 µg/mL (≈ 0.398 µM)
Minimum inhibitory concentration [9]: <0.125 µg/mL
Minimum inhibitory concentration [10]: 0.25 µg/mL (≈ 0.199 µM)
Minimum inhibitory concentration [11]: 0.25 µg/mL (≈ 0.199 µM)
Minimum inhibitory concentration [12]: <0.125 µg/mL
Minimum inhibitory concentration [13]: <0.125 µg/mL
